This passage reports IC50 results from patent US11459312B2, “Sulphur substituted 3-oxo-2,3-dihydropyridazine-4-carboxamides” (Bayer Aktiengesellschaft, priority 2017, dated 2022).

Each structure is given as a SMILES string.

This test deals with T1, AHR (Homo sapiens, UniProt P35869).
T1 sequence (P35869 11-848): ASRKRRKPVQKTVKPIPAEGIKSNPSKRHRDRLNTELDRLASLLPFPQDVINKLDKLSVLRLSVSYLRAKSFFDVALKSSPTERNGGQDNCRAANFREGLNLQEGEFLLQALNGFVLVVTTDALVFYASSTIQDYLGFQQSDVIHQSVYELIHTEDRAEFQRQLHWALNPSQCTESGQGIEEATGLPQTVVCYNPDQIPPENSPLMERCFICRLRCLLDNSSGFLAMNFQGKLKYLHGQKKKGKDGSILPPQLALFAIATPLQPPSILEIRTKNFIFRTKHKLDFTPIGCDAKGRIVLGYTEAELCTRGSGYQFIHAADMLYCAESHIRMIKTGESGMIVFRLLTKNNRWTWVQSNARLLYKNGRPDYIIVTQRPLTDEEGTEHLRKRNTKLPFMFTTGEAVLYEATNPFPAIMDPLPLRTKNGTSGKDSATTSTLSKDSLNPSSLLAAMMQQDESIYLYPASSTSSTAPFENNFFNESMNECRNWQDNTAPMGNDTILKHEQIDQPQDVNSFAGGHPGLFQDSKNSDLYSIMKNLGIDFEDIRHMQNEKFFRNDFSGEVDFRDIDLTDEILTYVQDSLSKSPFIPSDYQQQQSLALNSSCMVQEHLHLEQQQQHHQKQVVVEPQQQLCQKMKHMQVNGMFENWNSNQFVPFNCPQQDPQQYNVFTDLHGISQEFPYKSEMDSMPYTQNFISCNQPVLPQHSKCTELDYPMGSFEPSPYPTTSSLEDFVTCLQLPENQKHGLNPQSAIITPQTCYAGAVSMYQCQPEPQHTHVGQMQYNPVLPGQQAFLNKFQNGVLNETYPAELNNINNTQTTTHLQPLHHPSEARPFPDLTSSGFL
Nature of the test: In vitro assay 1: AHR-luc transactivation assay, antagonism in human cell line (U87 glioblastoma cells, kynurenic acid prestimulated). More on the design: U87 glioblastoma cells (ATCC) endogenously expressing AHR; host or cells: U87 glioblastoma cells, stably transfected with DRE-firefly luciferase and renilla reporter constructs only. The format is cell-based. As to conditions: firefly luciferase DRE reporter, 150 μM kynurenic acid, 20 hours, read-out: Assay 1: AHR-luc Hum Antagonism IC50. The procedure: Transactivation Assay in Human Cell Line (In Vitro Assays 1 and 2)
Transactivation assays were carried out in U87 glioblastoma cells (ATCC) endogenously expressing AHR. In addition the cells were stably transfected with an AHR inducible firefly luciferase reporter gene construct that carried AHR-binding sites (DRE) in its promoter and a renilla reporter gene construct with constitutively active promoter. Kynurenic acid is an endogenous AHR activating ligand and was used to prestimulate test cells prior to testing the antagonistic properties of compounds.
In Vitro Assay 1: Antagonism in Human Cell Line
Cells in medium (tryptophan free RPMI, 1% FCS, 2 mM Glutamine) supplemented with 150 μM kynurenic acid were grown for 20 hours in absence (negative control) or presence of increasing concentrations of test compounds (typical dilutions: […], 0.25 nmol/L, 0.89 nmol/L; 3.1 nmol/L, 11 nmol/L, 38 nmol/L, 130 nmol/L, 470 nmol/L, 1.6 μmol/L, 5.7 μmol/L and 20 μmol/L in duplicates). As positive inhibition control cells supplemented with 150 μM kynurenic acid were incubated in presence of 5 μM Staurosporin. Normalization was done by positive and negative controls.
Firefly luciferase and Renilla activity was determined by the DualGlo Luciferase Assay System (Promega, #2920). Renilla activity was used to assess toxic effects of compounds.

For the compound `O=C(N[C@@H]1C[S+]([O-])C[C@@H]1O)c1cc(-c2ccc(C(F)(F)F)cc2)nn(-c2cccnc2)c1=O` (single isomer, unassigned) [Example 35, N-[(cis)-4-hydroxy-1-oxidotetrahydro-thiophen-3-yl]-3-oxo-2-(pyridin-3-yl)-6-[4-(trifluoromethyl)phenyl]-2,3-dihydropyridazine-4-carboxamide], the concentration for half-maximal inhibition (IC50) was found to be 272 nM.
For the compound `C[C@@H](CS(C)(=N)=O)NC(=O)c1cc(-c2ccc(Cl)cc2)nn(-c2cccc(F)c2)c1=O` (mixture of isomers) [Example 6, 6-(4-Chlorophenyl)-2-(3-fluorophenyl)-N-[(2S)-1-(S-methylsulfonimidoyl)propan-2-yl]-3-oxo-2,3-di hydropyridazine-4-carboxamide], the IC50 is 232 nM.
With `O=C(N[C@@H]1CS(=O)(=O)C[C@@H]1O)c1cc(-c2ccc(C(F)(F)F)cc2)nn(-c2cnsc2)c1=O` (single isomer, unassigned) [Example 12, (+)-N-[(cis)-4-hydroxy-1,1-dioxidotetra-hydrothiophen-3-yl]-3-oxo-2-(1,2-thiazol-4-yl)-6-[4-(trifluoromethyl)phenyl]-2,3-dihydropyridazine-4-carboxamide], the IC50 amounted to 1.11 nM.
Consider `C[C@@H](C[S+](C)[O-])NC(=O)c1cc(-c2ccc(Cl)cc2)nn(-c2cccc(F)c2)c1=O` (single isomer, unassigned) [Example 4], for which the IC50 is 40.2 nM.
`O=C(N[C@@H]1CS(=O)(=O)C[C@@H]1O)c1cc(-c2ccc(C(F)(F)F)nc2)nn(-c2cccc(F)c2)c1=O` (single isomer, unassigned) [Example 21, (−)-2-(3-fluorophenyl)-N-[(cis)-4-hydroxy-1,1-dioxidotetrahydro-thiophen-3-yl]-3-oxo-6-[6-(trifluoromethyl)pyridin-3-yl]-2,3-dihydropyridazine-4-carboxamide]: the IC50 amounted to 205 nM.
Regarding `O=C(N[C@@H]1C[S+]([O-])C[C@@H]1O)c1cc(-c2ccc(C(F)(F)F)cc2)nn(-c2cccnc2)c1=O` (single isomer, unassigned) [Example 34, N-[(cis)-4-hydroxy-1-oxidotetrahydro-thiophen-3-yl]-3-oxo-2-(pyridin-3-yl)-6-[4-(trifluoromethyl)phenyl]-2,3-dihydropyridazine-4-carboxamide], the IC50 was 78.8 nM.
As to `C[C@@H](CS(C)(=N)=O)NC(=O)c1cc(-c2ccc(Cl)cc2)nn(-c2cccc(F)c2)c1=O` (single isomer, unassigned) [Example 7], the IC50 amounted to 241 nM.
The value for `C[C@@H](CS(C)(=N)=O)NC(=O)c1cc(-c2ccc(Cl)cc2)nn(-c2cccc(F)c2)c1=O` (single isomer, unassigned) [Example 8] was 140 nM; that for `O=C(N[C@@H]1C[S+]([O-])C[C@@H]1O)c1cc(-c2ccc(Cl)cc2)nn(-c2cccc(F)c2)c1=O` (single isomer, unassigned; (-)) [Example 28, (−)-6-(4-chlorophenyl)-2-(3-fluorophenyl)-N-[(cis)-4-hydroxy-1-oxidotetrahydro-thiophen-3-yl]-3-oxo-2,3-dihydropyridazine-4-carboxamide] was 13.4 nM; that for `C[C@@H](CS(C)(=N)=O)NC(=O)c1cc(-c2ccc(C(F)(F)F)cc2)nn(-c2cnn(C)c2)c1=O` (mixture of isomers) [Example 38, 2-(1-Methyl-1H-pyrazol-4-yl)-N-[(2S)-1-(S-methylsulfonimidoyl)propan-2-yl]-3-oxo-6-[4-(trifluoromethyl)phenyl]-2,3-dihydropyridazine-4-carboxamide] was 54.8 nM.
With `O=C(N[C@@H]1CS(=O)(=O)C[C@@H]1O)c1cc(-c2ccc(C(F)(F)F)cc2)nn(-c2cccnc2)c1=O` (relative stereo) [Example 16, N-[(cis)-4-hydroxy-1,1-dioxidotetrahydro-thiophen-3-yl]-3-oxo-2-(pyridin-3-yl)-6-[4-(trifluoromethyl)phenyl]-2,3-dihydropyridazine-4-carboxamide], the IC50 was found to be 29.2 nM.
Turning to `CS(=O)(=O)CCNC(=O)c1cc(-c2ccc(Cl)cc2)nn(-c2cccc(F)c2)c1=O` [Example 59, 6-(4-Chlorophenyl)-2-(3-fluorophenyl)-N-[2-(methylsulfonyl)ethyl]-3-oxo-2,3-dihydropyridazine-4-carboxamide], the IC50 stood at 326 nM.
Take `O=C(N[C@@H]1CCS(=O)(=O)C1)c1cc(-c2ccc(Cl)cc2)nn(-c2cccc(F)c2)c1=O` (stereo in doubt) [Example 58, 6-(4-Chlorophenyl)-N-(1,1-dioxidotetrahydrothiophen-3-yl)-2-(3-fluorophenyl)-3-oxo-2,3-dihydropyridazine-4-carboxamide]: the IC50 amounted to 145 nM.
Take `N=S1(=O)C[C@H](O)[C@H](NC(=O)c2cc(-c3ccc(Cl)cc3)nn(-c3cccc(F)c3)c2=O)C1` (stereo partly drawn) [Example 42, 6-(4-chlorophenyl)-2-(3-fluorophenyl)-N-[(cis)-4-hydroxy-1-imino-1-oxidotetrahydro-1H-1lambda4-thiophen-3-yl]-3-oxo-2,3-dihydropyridazine-4-carboxamide]: the IC50 worked out at 34.9 nM.
As to `CSC[C@H](C)NC(=O)c1cc(-c2ccc(Cl)cc2)nn(-c2cccc(F)c2)c1=O` [Example 1, 6-(4-Chlorophenyl)-2-(3-fluorophenyl)-N-[(2S)-1-(methylsulfanyl)propan-2-yl]-3-oxo-2,3-dihydropyridazine-4-carboxamide], the IC50 amounted to 52.6 nM.
On to `O=C(N[C@@H]1CS(=O)(=O)C[C@@H]1O)c1cc(-c2ccc(C(F)(F)F)nc2)nn(-c2cccc(F)c2)c1=O` (single isomer, unassigned) [Example 20, (+)-2-(3-fluorophenyl)-N-[(cis)-4-hydroxy-1,1-dioxidotetrahydro-thiophen-3-yl]-3-oxo-6-[6-(trifluoromethyl)pyridin-3-yl]-2,3-dihydropyridazine-4-carboxamide], for which the IC50 was determined as 54.3 nM.
The value for `C[C@@H](CS(C)(=N)=O)NC(=O)c1cc(-c2ccc(C(F)(F)F)cc2)nn(-c2cnn(C)c2)c1=O` (single isomer, unassigned) [Example 39] was 133 nM; that for `Cn1cc(-n2nc(-c3ccc(C(F)(F)F)cc3)cc(C(=O)N[C@@H]3CS(=N)(=O)C[C@@H]3O)c2=O)cn1` (stereo partly drawn) [Example 47, N-[(cis)-4-hydroxy-1-imino-1-oxidotetrahydro-1H-1lambda4-thiophen-3-yl]-2-(1-methyl-1H-pyrazol-4-yl)-3-oxo-6-[4-(trifluoromethyl)phenyl]-2,3-dihydropyridazine-4-carboxamide] was 158 nM.
For the compound `O=C(N[C@@H]1C[S+]([O-])C[C@@H]1O)c1cc(-c2ccc(C(F)(F)F)cc2)nn(-c2cccnc2)c1=O` (single isomer, unassigned) [Example 36, N-[(cis)-4-hydroxy-1-oxidotetrahydro-thiophen-3-yl]-3-oxo-2-(pyridin-3-yl)-6-[4-(trifluoromethyl)phenyl]-2,3-dihydropyridazine-4-carboxamide], the IC50 stood at 295 nM.
In the case of `Cn1cc(-n2nc(-c3ccc(C(F)(F)F)cc3)cc(C(=O)N[C@@H]3C[S+]([O-])C[C@@H]3O)c2=O)cn1` (relative stereo) [Example 32, N-[(cis)-4-hydroxy-1-oxidotetrahydro-thiophen-3-yl]-2-(1-methyl-1H-pyrazol-4-yl)-3-oxo-6-[4-(trifluoromethyl)phenyl]-2,3-dihydropyridazine-4-carboxamide] it was 41.6 nM.

In general, IC50 refers to the concentration that gives 50% inhibition.
